Patent US20030219837A1, “Integrin ligand” (priority 2002, published 2003)

Legend:
alpha6p = assay: Abundance of alpha6p on DU145H cells with exogenous agents; assay type: cell-based, human; conditions: data not shown
[1] = tested on: alpha6p integrin protein levels; assay: Calcium-induced terminal differentiation assay, Western blot with AA6A; assay type: cell-based; conditions: 291 nontransformed mouse keratinocytes, 24 h, dose-dependent (0.04 to 1.4 mM calcium)
Method: Cell Lines. All human cell lines were incubated at 37° C. in a humidified atmosphere of 95% air and 5% CO2. Cell lines DU145H, HaCaT, and PC3-N were grown in Iscove's modified Dulbecco's medium (Invitrogen Corporation, Carlsbad, Calif.; formerly Life Technologies, Inc.) plus 10% fetal bovine serum. Cell lines MCF-7, PC3-ATCC, LnCap, and H69 were grown in Dulbecco's modified Eagle's medium (Invitrogen Corporation, Carlsbad, Calif.; formerly Life Technologies, Inc.) plus 10% fetal bovine serum. SW480 cells were grown in super medium (Dulbecco's modified Eagle's medium plus 5% nonessential amino acids, 5% L-glutamine, 5% sodium pyruvate, 10% fetal bovine serum). Normal prostate cells, PrEC, were grown in PrEGM bullet kit medium (Clonetics, San Diego, Calif.). […]
Mouse 291 normal keratinocyte terminal differentiation can be induced by calcium. […] The presence of alpha6 and alpha6p integrins in normal 291 mouse keratinocytes was determined using whole cell lysates followed by Western blot analysis using anti-alpha6 integrin antibody, AA6A (FIG. 10A). […] The alpha6 and alpha6p integrin protein bands were quantitated using Scion Image (Cress (2000) BioTechniques 29:776-781), and the results were graphed (FIG. 10B). […]

DU145H cells = assay: Surface half-life by biotinylation strategy; assay type: cell-based, human
Method: Surface Biotinylation of Cell Lines. Previous published protocols (Isberg and Leong (1990) Cell 60:861-871; Einheber et al. (1993) J. Cell Biol. 123:1223-1236) were slightly modified. Briefly, cells were grown to confluency in 100-mm tissue culture dishes and washed three times with HEPES buffer (20 mM HEPES, 130 mM NaCl, 5 mM KCl, 0.8 mM MgCl2, 1.0 mM CaCl2, pH 7.45). The cells were then incubated with 2 ml of HEPES buffer supplemented with sulfosuccinimidyl hexanoate-conjugated biotin (500 μg/ml; Pierce), which is impermeable to cell membranes (Staros (1982) Biochemistry 21:3950-3), to label cell surface proteins for 30 min at 4° C. The cells were washed three times and lysed in cold radioimmune precipitation buffer plus protease inhibitors (phenylmethylsulfonyl fluoride, 2 mM; leupeptin and aprotinin, 1 μg/ml). The lysate was briefly sonicated on ice before centrifugation at 10,000 rpm for 10 min, and the supernatant was collected for immunoprecipitations.
To determine if the novel alpha6p variant was a degradation product of the alpha6 integrin that would be rapidly cleared from the surface, the surface half-life of both integrins was examined using a biotinylation strategy. […] After 24, 48, or 72 h, the integrins were immunoprecipitated using the GoH3 antibody and analyzed under non-reducing conditions (FIG. 8, panel A).

| Molecule | influence on abundance of alpha6p (alpha6p) | also measured |
| --- | --- | --- |
| CCCCCCCCCCCCCC(=O)O[C@@H]1[C@@H](C)[C@@]2(O)[C@@H](C=C(CO)C[C@]3(O)C(=O)C(C)=C[C@@H]23)[C@@H]2C(C)(C)[C@]12OC(C)=O [12-O-tetradecanoylphorbol-13-acetate] | not influenced | – |
| CNC(=O)[C@H](Cc1ccccc1)NC(=O)[C@H](CC(C)C)[C@H](CSc1cccs1)C(=O)NO [BB94] | not influenced | – |
| [Ca+2].[Cl-].[Cl-] [CaCl2] | not influenced | – |
| [Ca+2] [Calcium, calcium] | – | increase of alpha6p integrin protein levels [1]: 3 fold |
| CC(=O)N[C@@H](CC(C)C)C(=O)N[C@@H](CC(C)C)C(=O)N[C@H](C=O)CCCNC(=N)N [leupeptin] | not influenced | – |
| aprotinin | not influenced | – |
| ecotin: exogenous protease inhibitor | not influenced | – |
| kallikrein | not influenced | – |
| alpha6p: 70-kDa, naturally occurring truncated form of the alpha6 integrin (protein) VNSLPEVLPILNSNEAKTVQTDVHFLKEGCGDDNVCNSNLKLEYKFGTREGNQDKFSYLPIQKGIPELVLKDQKDIALEITVTNSPSDPRNPRKDGDDAHEAKLIATFPDTLTYSAYRELRAFPEKQLSCVANQNGSQADCELGNPFKRNSSVTFYLILSTTEVTFDTTDLDINLKLETTSNQDNLAPITAKAKVVIELLLSVSGVAKPSQVYFGGTVVGEQAMKSEDEVGSLIEYEFRVINLGKPLKNLGTATLNIQWPKEISNGKWLLYLMKVESKGLEQIVCEPHNEINYLKLKESHNSRKKRELPEKQIDDSRKFSLFPERKYQTLNCSVNVRCVNIRCPLRGLDSKASLVLRSRLWNSTFLEEYSKLNYLDILLRASIDVTAAAQNIKLPHAGTQVRVTVFPSKTVAQYSGVAWWIILLAVLAGILMLALLVFLLWKCGFFKRSRYDDSIPRYHAVRIRKEEREIKDEKHMDNLEKKQWITKWNENESYS | – | surface half-life relative to full-length alpha6 integrin (DU145H cells; surface of DU145H cells): ~3 times; half-life on the cell surface (DU145H cells; surface of DU145H cells, 24, 48, 72 h after biotinylation): ~72 h |
